Read-outs that look alike come from different tables or passages of the source.
How the values were obtained:
conscious adult ewes = test: Trachael mucus velocity (TMV) study, fluoroscopy of radiopaque disks; assay type: in vivo, sheep; settings: for maximal effect on tracheal mucus velocity: 400 μmole (4 ml of 10^−1M) nebulized, mean±standard error, n=6, 15 min after administration; for effect on tracheal mucus velocity: doses 4 to 400 μmole; for effect on tracheal mucus velocity / duration of significant effects on TMV after administration / time of maximal effect on TMV after administration: nebulized; for duration of significant effects on TMV after administration: highest dose (400 μmole); for time of maximal effect on TMV after administration: adult ewes
Excerpt: The effects of UTP and U2P4 on trachael mucus velocity (TMV) were studied using the following procedures: The nasal passages of conscious adult ewes were anesthetized with a 2% lidocaine solution. After local anesthesia was produced, a modified endotracheal tube 7.5 mm was placed such that the cuff was just below the vocal cords (verified by fluoroscopy). Inspired air was warmed and humidified. The cuff of the endotracheal tube was inflated only during administation of the test compound to minimize possible impairment of TMV by the cuff. Test compounds were administered by nebulization in a volume of 4 mL over a period of 10-12 min. TMV was measured by fluroscopy. Ten to twenty radiopaque disks (Teflon®/bismuth trioxide; 1 mm diameter, 0.8 mm thick, weighing 1.8 mg) were introduced into the trachea through a modified suction catheter with a puff of compressed air (3-4 L/min). Velocities of the individual disks were recorded on videotape from a portable image intensifier unit. Individual disk velocities were calculated by measuring the distance traveled by each disk during a 1 min observation period. Values reported are the means of the individual disk velocities. A collar was worn by the sheep which was used as a standard to correct for magnification errors inherent in the fluoroscope.

healthy adult ewes = test: Mucociliary clearance study, 99mTc-HSA clearance by gamma camera; assay type: in vivo, sheep; settings: 400 μmole nebulized; initial results n=2; compared to saline control
Procedure: In this study healthy adult ewes were given 99 mTc-labeled human serum albumin (99 mTc-HSA) via a nebulized aerosol. The 99 mTC-HSA (20 mCi) was administered over 5 min through a nasotracheal tube introduced under local anesthesia with 2% lidocaine. After administration of the 99 mTc-HSA, the animals were given a test compound: either UTP or U2P4. Test compounds were administered by nebulization in a volume of 4 mL over a period of 10-12 min. The test compounds were given at a dose of 400 μmole. After the administration of the test compound, the animals were extubated. Clearance of the radiolabeled particles was monitored with a gamma camera. Measurements were made at 0, 5, 10, 15, 20, 25, 30, 35, 40, 45, 50, 55, 60, […], 90, 105 and 120 min.

[1] = system: anesthetized and ventilated dogs; settings: cited from earlier work
[2] = system: goblet cells in human airway epithelial explants; settings: tissues from healthy individuals and patients with CF; cited from earlier work
[3] = system: cultured human epithelial cells; settings: cells from normal adult humans and CF patients; cited from earlier work
[4] = system: human nasal epithelial cells; settings: cited from earlier work
normal volunteers = settings: acute; cited from earlier work

| Structure (SMILES) | maximal effect on tracheal mucus velocity (conscious adult ewes) | effect on tracheal mucus velocity (conscious adult ewes) | duration of significant effects on TMV after administration (conscious adult ewes) | time of maximal effect on TMV after administration (conscious adult ewes) [min] | clearance of radiolabeled particles (99mTc-HSA) (healthy adult ewes) | effects on peak inspiratory airway pressure, mean pulmonary artery pressure, heart rate, cardiac output, thoracic aortic pressure, electrocardiogram, arterial blood gases ([1]; aerosol, 10^−2 M and 10^−1 M in nebulizer) | changes in mean pulmonary artery pressure, heart rate, cardiac output, mean arterial pressure ([1]; intravenous, sequential doses 0.1, 1, 3 and 5 mmoles/kg infused over 10 minutes) | mucin secretion by goblet cells [2] | cilia beat frequency [3] | Cl- secretion ([4]; cultured nasal epithelial cells from cystic fibrosis (CF) patients) | Cl- secretion ([4]; normal human nasal epithelial cells, apical application) | improvement of mucociliary clearance (MCC) (normal volunteers) [fold] |
| --- | --- | --- | --- | --- | --- | --- | --- | --- | --- | --- | --- | --- |
| O=c1ccn([C@@H]2O[C@H](COP(=O)(O)OP(=O)(O)OP(=O)(O)OP(=O)(O)OC[C@H]3O[C@@H](n4ccc(=O)[nH]c4=O)[C@H](O)[C@@H]3O)[C@@H](O)[C@H]2O)c(=O)[nH]1 [U2P4, P1,P4-di(uridine-5′)tetraphosphate] | 144±9 % of baseline | significant dose-related effects | ≤ 2 h | 15 | promote clearance of the radiolabeled particles | – | – | – | – | – | – | – |
| O=c1ccn([C@@H]2O[C@H](COP(=O)(O)OP(=O)(O)OP(=O)(O)O)[C@@H](O)[C@H]2O)c(=O)[nH]1 [UTP, uridine 5′-triphosphate] | 125±7 % of baseline | significant dose-related effects | up to 4 h | 15 | promote clearance of the radiolabeled particles | no significant effects | no significant changes | increase the rate and total amount of mucin secretion | increase in cilia beat frequency | This response was also observed | increased Cl- secretion in a concentration-dependent manner | 2.5 |

Source: patent US6703376B2, “Use of uridine triphosphates and related compounds for the prevention and treatment of pneumonia in immobilized patients” (Inspire Pharmaceuticals, Inc., priority 1996, dated 2004)
